Source: patent publication US20110200535A1, “DAA-PYRIDINE AS PERIPHERAL BENZODIAZEPINE RECEPTOR LIGAND FOR DIAGNOSTIC IMAGING AND PHARMACEUTICAL TREATMENT” (BAYER SCHERING PHARMA AKTIENGESELLSCHAFT, priority 2008, published 2011)
Several values for one entry are separate records, joined by “and”; a condition that tells them apart may be missing. Equal values may be shown once. One block for each molecule: values may come before it.

How the values were obtained:
Assay type in all cases: in vivo
[1] = molecular target: T1, peripheral benzodiazepine receptor (PBR) (Rattus norvegicus, UniProt P16257); test: Ex vivo autoradiography of brain sections, rat kainic acid induced epilepsy model; conditions: for Hipp/Cereb ratio (signal-to-background ratio, hippocampus/cerebellum): rat kainic acid model, 30 min ex vivo autoradiography
T1 construct: from tissue; host or cells: rat brain (hippocampus, cerebellum) after i.v. tracer injection
Protocol: Using a rat kainic acid induced epilepsy model and respective sham controls the accumulation of [^18F]-2d and [^18F]-5d was visualized ex vivo. In brief, epilepsy was induced in rats by injecting kainic acid i.p. At day eight after the start of the kainic acid treatment [^18F]-2d and [^18F]-5d were injected into the tail vein of the rats and their sham treated controls (PBS instead of kainic acid) at a dose of 25.8-35.8 MBq (approximately 1.0 μg) per rat. Thirty minutes after intravenous injection the rats were sacrificed, the brains were taken out, snap frozen and sliced transversally in a cryostat. The slices were exposed to PhosphoImager plates over night. The resulting autoradiographic signals were analyzed qualitatively and quantitatively (FIG. 2.1 A and C, 2.2 A and C). […] To determine the specificity of the [^18F]-2d and [^18F]-5d binding, kainic acid treated rats were co-injected with [^19F]-2e and [^19F]-5e, respectively.
The autoradiographic signals were quantified. The signal intensity in a hippocampal region of interest (ROI) was measured and compared to a ROI in the cerebellum, that was used as reference region.

[2] = Excretion of [^18F]-radioactivity via urine and faeces in normal mice (gamma counter); conditions: i.v., decay corrected
Protocol: (§1) The biodistribution of [^18F]-2d and [^18F]-5d was investigated in healthy male NMRI mice (28.3-35.6 g body weight, n=3 animals per time point) at 2, 5, 30, 60 and 180/240 min after intravenous injection of 0.264 MBq [^18F]-2d and 0.268 MBq [^18F]-5d per animal, respectively. Until the indicated time points urine and faeces were quantitatively collected. At the respective time points the mice were sacrificed and the tissues were removed. [^18F]-radioactivity was analyzed in a gamma counter (Tab. 1.1, 2.1 and 1.2, 2.2).

[3] = Biodistribution of [^18F]-radioactivity in healthy male NMRI mice after intravenous injection (gamma counter); conditions: for Elimination from mouse brain, 2 min/30 min ratio of brain uptake (% ID/g): 2 min to 30 min; for [^18F]-radioactivity in adrenals / [^18F]-radioactivity in blood / [^18F]-radioactivity in bone / [^18F]-radioactivity in brain (brain uptake) / [^18F]-radioactivity in fat / [^18F]-radioactivity in heart / [^18F]-radioactivity in intestine / [^18F]-radioactivity in kidney / [^18F]-radioactivity in liver / [^18F]-radioactivity in lung / [^18F]-radioactivity in muscle / [^18F]-radioactivity in pancreas / [^18F]-radioactivity in skin / [^18F]-radioactivity in spleen / [^18F]-radioactivity in stomach / [^18F]-radioactivity in testes / [^18F]-radioactivity in thyroid: normal mice, i.v., decay corrected
Protocol: as §1

- Hipp/Cereb ratio (signal-to-background ratio, hippocampus/cerebellum) [1]: 3.0 ± 0.9
- Hipp/Cereb ratio (signal-to-background ratio, hippocampus/cerebellum) ([1]; listed as 5d): 3.0±0.9
- Excretion of [^18F]-radioactivity via faeces ([2]; 2 min): 0.00 ± 0.00 % injected dose
- Excretion of [^18F]-radioactivity via urine ([2]; 2 min): 0.02 ± 0.02 % injected dose
- Excretion of [^18F]-radioactivity via faeces ([2]; 5 min): 0.00 ± 0.00 % injected dose
- Excretion of [^18F]-radioactivity via urine ([2]; 5 min): 0.04 ± 0.00 % injected dose
- Excretion of [^18F]-radioactivity via faeces ([2]; 30 min): 0.03 ± 0.02 % injected dose
- Excretion of [^18F]-radioactivity via urine ([2]; 30 min): 2.33 ± 1.20 % injected dose
- Excretion of [^18F]-radioactivity via faeces ([2]; 60 min): 0.04 ± 0.02 % injected dose
- Excretion of [^18F]-radioactivity via urine ([2]; 60 min): 4.21 ± 0.97 % injected dose
- Excretion of [^18F]-radioactivity via faeces ([2]; 240 min): 0.74±1.01 % injected dose
- Excretion of [^18F]-radioactivity via urine ([2]; 240 min): 15.24±1.25 % injected dose
- Initial elimination of the radioactivity from the brain ([3]; mice, 30 min p.i.): ca. 73%
- Elimination from mouse brain, 2 min/30 min ratio of brain uptake (% ID/g) ([3]; mice): 3.7
- [^18F]-radioactivity in adrenals ([3]; 2 min): 9.90 ± 1.17 % injected dose/g
- [^18F]-radioactivity in blood ([3]; 2 min): 2.75 ± 0.40 % injected dose/g
- [^18F]-radioactivity in bone ([3]; 2 min): 1.02 ± 0.31 % injected dose/g
- [^18F]-radioactivity in brain (brain uptake) ([3]; 2 min): 1.61±0.23 % injected dose/g
- [^18F]-radioactivity in fat ([3]; 2 min): 0.24 ± 0.08 % injected dose/g
- [^18F]-radioactivity in heart ([3]; 2 min): 17.21 ± 1.43 % injected dose/g
- [^18F]-radioactivity in intestine ([3]; 2 min): 0.77 ± 0.24 % injected dose/g
- [^18F]-radioactivity in kidney ([3]; 2 min): 6.15 ± 1.95 % injected dose/g
- [^18F]-radioactivity in liver ([3]; 2 min): 1.51 ± 0.38 % injected dose/g
- [^18F]-radioactivity in lung ([3]; 2 min): 65.87 ± 15.87 % injected dose/g
- [^18F]-radioactivity in muscle ([3]; 2 min): 1.23 ± 0.27 % injected dose/g
- [^18F]-radioactivity in pancreas ([3]; 2 min): 1.54 ± 0.34 % injected dose/g
- [^18F]-radioactivity in skin ([3]; 2 min): 0.52 ± 0.02 % injected dose/g
- [^18F]-radioactivity in spleen ([3]; 2 min): 1.40 ± 0.06 % injected dose/g
- [^18F]-radioactivity in stomach ([3]; 2 min): 2.03 ± 1.05 % injected dose/g
- [^18F]-radioactivity in testes ([3]; 2 min): 0.50 ± 0.01 % injected dose/g
- [^18F]-radioactivity in thyroid ([3]; 2 min): 3.97 ± 1.12 % injected dose/g
- [^18F]-radioactivity in adrenals ([3]; 5 min): 28.94 ± 11.26 % injected dose/g
- [^18F]-radioactivity in blood ([3]; 5 min): 2.13 ± 0.23 % injected dose/g
- [^18F]-radioactivity in bone ([3]; 5 min): 1.41 ± 0.19 % injected dose/g
- [^18F]-radioactivity in brain (brain uptake) ([3]; 5 min): 1.13 ± 0.22 % injected dose/g
- [^18F]-radioactivity in fat ([3]; 5 min): 0.24 ± 0.03 % injected dose/g
- [^18F]-radioactivity in heart ([3]; 5 min): 18.45 ± 1.69 % injected dose/g
- [^18F]-radioactivity in intestine ([3]; 5 min): 1.42 ± 0.02 % injected dose/g
- [^18F]-radioactivity in kidney ([3]; 5 min): 8.53 ± 1.50 % injected dose/g
- [^18F]-radioactivity in liver ([3]; 5 min): 2.19 ± 31^ % injected dose/g
- [^18F]-radioactivity in lung ([3]; 5 min): 45.38 ± 5.54 % injected dose/g
- [^18F]-radioactivity in muscle ([3]; 5 min): 1.89 ± 0.32 % injected dose/g
- [^18F]-radioactivity in pancreas ([3]; 5 min): 2.37 ± 0.56 % injected dose/g
- [^18F]-radioactivity in skin ([3]; 5 min): 0.79 ± 0.07 % injected dose/g
- [^18F]-radioactivity in spleen ([3]; 5 min): 3.25 ± 0.15 % injected dose/g
- [^18F]-radioactivity in stomach ([3]; 5 min): 3.04 ± 0.49 % injected dose/g
- [^18F]-radioactivity in testes ([3]; 5 min): 0.71 ± 0.10 % injected dose/g
- [^18F]-radioactivity in thyroid ([3]; 5 min): 4.25 ± 0.79 % injected dose/g
- [^18F]-radioactivity in adrenals ([3]; 30 min): 12.31 ± 0.43 % injected dose/g
- [^18F]-radioactivity in blood ([3]; 30 min): 0.80 ± 0.17 % injected dose/g
- [^18F]-radioactivity in bone ([3]; 30 min): 2.05 ± 0.08 % injected dose/g
- [^18F]-radioactivity in fat ([3]; 30 min): 0.61 ± 0.26 % injected dose/g
- [^18F]-radioactivity in heart ([3]; 30 min): 7.53 ± 2.41 % injected dose/g
- [^18F]-radioactivity in intestine ([3]; 30 min): 2.48 ± 0.78 % injected dose/g
- [^18F]-radioactivity in kidney ([3]; 30 min): 9.53 ± 0.82 % injected dose/g
- [^18F]-radioactivity in liver ([3]; 30 min): 3.52 ± 1.35 % injected dose/g
- [^18F]-radioactivity in lung ([3]; 30 min): 9.83 ± 1.66 % injected dose/g
- [^18F]-radioactivity in muscle ([3]; 30 min): 2.14 ± 0.31 % injected dose/g
- [^18F]-radioactivity in pancreas ([3]; 30 min): 2.46 ± 0.19 % injected dose/g
- [^18F]-radioactivity in skin ([3]; 30 min): 1.23 ± 0.21 % injected dose/g
- [^18F]-radioactivity in spleen ([3]; 30 min): 5.68 ± 0.59 % injected dose/g
- [^18F]-radioactivity in stomach ([3]; 30 min): 3.01 ± 0.70 % injected dose/g
- [^18F]-radioactivity in testes ([3]; 30 min): 0.75 ± 0.19 % injected dose/g
- [^18F]-radioactivity in thyroid ([3]; 30 min): 3.81 ± 0.42 % injected dose/g
- [^18F]-radioactivity in adrenals ([3]; 60 min): 16.66 ± 2.86 % injected dose/g
- [^18F]-radioactivity in blood ([3]; 60 min): 0.75 ± 0.01 % injected dose/g
- [^18F]-radioactivity in bone ([3]; 60 min): 1.69 ± 0.26 % injected dose/g
- [^18F]-radioactivity in brain (brain uptake) ([3]; 60 min): 0.34 ± 0.06 % injected dose/g
- [^18F]-radioactivity in fat ([3]; 60 min): 3.27 ± 0.30 % injected dose/g
- [^18F]-radioactivity in heart ([3]; 60 min): 5.76 ± 0.87 % injected dose/g
- [^18F]-radioactivity in intestine ([3]; 60 min): 3.31 ± 0.16 % injected dose/g
- [^18F]-radioactivity in kidney ([3]; 60 min): 9.57 ± 0.76 % injected dose/g
- [^18F]-radioactivity in liver ([3]; 60 min): 2.35 ± 0.35 % injected dose/g
- [^18F]-radioactivity in lung ([3]; 60 min): 6.46 ± 1.07 % injected dose/g
- [^18F]-radioactivity in muscle ([3]; 60 min): 2.13 ± 0.21 % injected dose/g
- [^18F]-radioactivity in pancreas ([3]; 60 min): 2.34 ± 0.48 % injected dose/g
- [^18F]-radioactivity in skin ([3]; 60 min): 1.39 ± 0.10 % injected dose/g
- [^18F]-radioactivity in spleen ([3]; 60 min): 5.79 ± 0.10 % injected dose/g
- [^18F]-radioactivity in stomach ([3]; 60 min): 4.21 ± 0.25 % injected dose/g
- [^18F]-radioactivity in testes ([3]; 60 min): 0.90 ± 0.10 % injected dose/g
- [^18F]-radioactivity in thyroid ([3]; 60 min): 3.21 ± 0.75 % injected dose/g
- [^18F]-radioactivity in adrenals ([3]; 240 min): 13.93 ± 6.07 % injected dose/g
- [^18F]-radioactivity in blood ([3]; 240 min): 0.60 ± 0.07 % injected dose/g
- [^18F]-radioactivity in brain (brain uptake) ([3]; 240 min): 0.32 ± 0.08 % injected dose/g
- [^18F]-radioactivity in fat ([3]; 240 min): 0.86 ± 0.10 % injected dose/g
- [^18F]-radioactivity in heart ([3]; 240 min): 2.21 ± 0.24 % injected dose/g
- [^18F]-radioactivity in intestine ([3]; 240 min): 3.96 ± 0.16 % injected dose/g
- [^18F]-radioactivity in kidney ([3]; 240 min): 6.84 ± 0.69 % injected dose/g
- [^18F]-radioactivity in liver ([3]; 240 min): 1.76 ± 0.23 % injected dose/g
- [^18F]-radioactivity in lung ([3]; 240 min): 3.42 ± 0.73 % injected dose/g
- [^18F]-radioactivity in muscle ([3]; 240 min): 1.32 ± 0.11 % injected dose/g
- [^18F]-radioactivity in pancreas ([3]; 240 min): 1.41 ± 0.22 % injected dose/g
- [^18F]-radioactivity in skin ([3]; 240 min): 1.47 ± 0.06 % injected dose/g
- [^18F]-radioactivity in spleen ([3]; 240 min): 3.02 ± 0.25 % injected dose/g
- [^18F]-radioactivity in stomach ([3]; 240 min): 3.43 ± 0.54 % injected dose/g
- [^18F]-radioactivity in testes ([3]; 240 min): 0.94 ± 0.12 % injected dose/g
- [^18F]-radioactivity in thyroid ([3]; 240 min): 2.50 ± 0.15 % injected dose/g
SMILES: COc1ccc(OCC[18F])c(CN(C(C)=O)c2cccnc2Oc2cccc(C)c2C)c1 [[^18F]-5d, N-[2-(2,3-dimethylphenoxy)pyridin-3-yl]-N-[2-(2-[^18F]fluoroethoxy)-5-methoxybenzyl]acetamide]
- Specificity of binding: autoradiographic signal on co-injection of the corresponding [^19F] compound ([1]; kainic acid treated rats, co-injected with [^19F]-2e and [^19F]-5e, respectively): significantly reduced autoradiographic signal
- [^18F]-radioactivity in brain (brain uptake) ([3]; 30 min): 0.44±0.15 % injected dose/g and 0.44 ± 0.51 % injected dose/g
- [^18F]-radioactivity in bone ([3]; 240 min): 2.6 % injected dose/g and 2.59 ± 0.56 % injected dose/g

- Elimination from mouse brain, 2 min/30 min ratio of brain uptake (% ID/g) ([3]; mice): 4.85
SMILES: COc1ccc(OCC[18F])c(CN(C(C)=O)c2cccnc2Cc2ccc(F)cc2)c1 [compound 21]

- Hipp/Cereb ratio (signal-to-background ratio, hippocampus/cerebellum) [1]: 1.2±0.2
- Elimination from mouse brain, 2 min/30 min ratio of brain uptake (% ID/g) ([3]; mice): 2.0
- Elimination from mouse brain, 2 min/30 min ratio of brain uptake (% ID/g) ([3]; mice, listed as FEDAA): 2.00
SMILES: COc1ccc(OCC[18F])c(CN(C(C)=O)c2cc(F)ccc2Oc2ccccc2)c1 [[^18F]-FEDAA1106, reference compound]
